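96-well plates; 48 h exposure; 5 concentrations. Endpoints by linear interpolation between flanking doses. Not reached: highest tested concentration assigned. Abbreviation: GI50, concentration required for 50% inhibition of growth.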 The source made the active and inactive calls. Cut-off read from the data, not from the text of the source: active = GI50 up to about 1.1 µM and inactive = higher.
Columns and labels:
Test in all cases: NCI-60 cell line screen, 48 h
M14 = tested on: M14
OVCAR-3 = tested on: OVCAR-3
SN12C = tested on: SN12C
NCI-H23 = tested on: NCI-H23
KM12 = tested on: KM12
XF498 = tested on: XF498
TK-10 = tested on: TK-10
OVCAR-5 = tested on: OVCAR-5
SK-OV-3 = tested on: SK-OV-3
RXF 631 = tested on: RXF 631
SK-MEL-28 = tested on: SK-MEL-28
SK-MEL-5 = tested on: SK-MEL-5
DLD-1 = tested on: DLD-1
CAKI-1 = tested on: CAKI-1
CCRF-CEM = tested on: CCRF-CEM
SF-295 = tested on: SF-295
COLO 205 = tested on: COLO 205
UACC-257 = tested on: UACC-257
U-251 = tested on: U-251
RXF 393 = tested on: RXF 393
A549 = tested on: A549
SW-620 = tested on: SW-620
HCT-15 = tested on: HCT-15
A498 = tested on: A498
SNB-78 = tested on: SNB-78
DMS-114 = tested on: DMS-114
M19-MEL = tested on: M19-MEL
786-0 = tested on: 786-0
MOLT-4 = tested on: MOLT-4
LXFL 529 = tested on: LXFL 529
OVCAR-4 = tested on: OVCAR-4
SNB-19 = tested on: SNB-19
HL-60 = tested on: HL-60
SF-539 = tested on: SF-539
K562 = tested on: K562
DMS-273 = tested on: DMS-273
UO-31 = tested on: UO-31
ACHN = tested on: ACHN
RPMI-8226 = tested on: RPMI-8226
Malme-3M = tested on: Malme-3M
LOX IMVI = tested on: LOX IMVI
SNB-75 = tested on: SNB-75
EKVX = tested on: EKVX
NCI-H460 = tested on: NCI-H460
SK-MEL-2 = tested on: SK-MEL-2
NCI-H522 = tested on: NCI-H522
OVCAR-8 = tested on: OVCAR-8
UACC-62 = tested on: UACC-62
HCT-116 = tested on: HCT-116
HOP-62 = tested on: HOP-62
IGROV-1 = tested on: IGROV-1
SF-268 = tested on: SF-268
HT-29 = tested on: HT-29
KM-20L2 = tested on: KM-20L2
NCI-H226 = tested on: NCI-H226
SR = tested on: SR
HCC 2998 = tested on: HCC 2998
HOP-92 = tested on: HOP-92

`C=CCC1=C2CCCCC2CCC1=O` (stereo not drawn) was tested, and the GI50 (M14) was > 100 µM (inactive), the GI50 (OVCAR-3) was > 100 µM (inactive) and the GI50 (SN12C) was > 100 µM (inactive). The GI50 (NCI-H23) was > 100 µM (inactive), the GI50 (KM12) was > 100 µM (inactive) and the GI50 (XF498) was > 100 µM (inactive). For the same compound, the GI50 (TK-10) was > 100 µM (inactive), the GI50 (OVCAR-5) was > 100 µM (inactive) and the GI50 (SK-OV-3) was > 100 µM (inactive). The GI50 (RXF 631) was > 100 µM (inactive), the GI50 (SK-MEL-28) was > 100 µM (inactive) and the GI50 (SK-MEL-5) was > 100 µM (inactive). For the same compound, the GI50 (DLD-1) was > 100 µM (inactive), the GI50 (CAKI-1) was > 100 µM (inactive) and the GI50 (CCRF-CEM) was > 100 µM (inactive). The GI50 (SF-295) was > 100 µM (inactive), the GI50 (COLO 205) was > 100 µM (inactive) and the GI50 (UACC-257) was > 100 µM (inactive). For the same compound, the GI50 (U-251) was > 100 µM (inactive), the GI50 (RXF 393) was > 100 µM (inactive) and the GI50 (A549) was > 100 µM (inactive). The GI50 (SW-620) was > 100 µM (inactive), the GI50 (HCT-15) was over 100 µM and the GI50 (A498) was > 100 µM (inactive). For the same compound, the GI50 (SNB-78) was > 100 µM (inactive), the GI50 (DMS-114) was > 100 µM (inactive) and the GI50 (M19-MEL) was > 100 µM (inactive). For the same compound, the GI50 (786-0) was > 100 µM (inactive), the GI50 (MOLT-4) was > 100 µM (inactive) and the GI50 (LXFL 529) was > 100 µM (inactive). For the same compound, the GI50 (OVCAR-4) was > 100 µM (inactive), the GI50 (SNB-19) was > 100 µM (inactive) and the GI50 (HL-60) was > 100 µM (inactive). The GI50 (SF-539) was > 100 µM (inactive), the GI50 (K562) was > 100 µM (inactive) and the GI50 (DMS-273) was > 100 µM (inactive). The GI50 (UO-31) was > 100 µM (inactive), the GI50 (ACHN) was > 100 µM (inactive) and the GI50 (RPMI-8226) was > 100 µM (inactive). For the same compound, the GI50 (Malme-3M) was > 100 µM (inactive), the GI50 (LOX IMVI) was > 100 µM (inactive) and the GI50 (SNB-75) was > 100 µM (inactive). The GI50 (EKVX) was > 100 µM (inactive), the GI50 (NCI-H460) was > 100 µM (inactive) and the GI50 (SK-MEL-2) was > 100 µM (inactive). For the same compound, the GI50 (NCI-H522) was > 100 µM (inactive), the GI50 (OVCAR-8) was > 100 µM (inactive) and the GI50 (UACC-62) was > 100 µM (inactive). The GI50 (HCT-116) was > 100 µM (inactive), the GI50 (HOP-62) was > 100 µM (inactive) and the GI50 (IGROV-1) was > 100 µM (inactive). The GI50 (SF-268) was > 100 µM (inactive).

`COc1cc(/C=C\c2ccc(OC(C)=O)cc2)cc(OC)c1OC` was tested, and the GI50 (M14) was 4.49 µM (inactive), the GI50 (OVCAR-3) was 3.29 µM (inactive) and the GI50 (SN12C) was 4.22 µM (inactive). For the same compound, the GI50 (HT-29) was 10.8 µM (inactive), the GI50 (KM-20L2) was 25.9 µM (inactive) and the GI50 (NCI-H23) was 0.352 µM (active). The GI50 (KM12) was 2.21 µM (inactive), the GI50 (XF498) was 3.39 µM (inactive) and the GI50 (NCI-H226) was 33.7 µM (inactive). The GI50 (OVCAR-5) was 62.7 µM (inactive), the GI50 (SK-OV-3) was > 100 µM (inactive) and the GI50 (RXF 631) was 17.7 µM (inactive). For the same compound, the GI50 (SK-MEL-28) was 1.44 µM (inactive), the GI50 (DLD-1) was 3.99 µM (inactive) and the GI50 (CAKI-1) was 29.1 µM (inactive). For the same compound, the GI50 (CCRF-CEM) was 4.06 µM (inactive), the GI50 (COLO 205) was 13.3 µM (inactive) and the GI50 (SR) was 5.04 µM (inactive). For the same compound, the GI50 (UACC-257) was 2.48 µM (inactive), the GI50 (U-251) was 2.37 µM (inactive) and the GI50 (A549) was 6.62 µM (inactive). For the same compound, the GI50 (SW-620) was 3.36 µM (inactive), the GI50 (A498) was 22.4 µM (inactive) and the GI50 (SNB-78) was 5.62 µM (inactive). For the same compound, the GI50 (HCC 2998) was 8.13 µM (inactive), the GI50 (DMS-114) was 3.33 µM (inactive) and the GI50 (M19-MEL) was 6.4 µM (inactive). The GI50 (786-0) was 3.56 µM (inactive), the GI50 (MOLT-4) was 3.78 µM (inactive) and the GI50 (LXFL 529) was 6.1 µM (inactive). For the same compound, the GI50 (OVCAR-4) was 19.1 µM (inactive), the GI50 (SNB-19) was 0.668 µM (active) and the GI50 (SF-539) was 2.26 µM (inactive). For the same compound, the GI50 (K562) was 2.59 µM (inactive), the GI50 (DMS-273) was 0.887 µM (active) and the GI50 (UO-31) was 4.08 µM (inactive). For the same compound, the GI50 (ACHN) was 6.46 µM (inactive), the GI50 (RPMI-8226) was 0.587 µM (active) and the GI50 (Malme-3M) was 2.06 µM (inactive). The GI50 (SNB-75) was 2.2 µM (inactive), the GI50 (EKVX) was 10 µM (inactive) and the GI50 (NCI-H460) was 4.1 µM (inactive). The GI50 (SK-MEL-2) was 4.26 µM (inactive), the GI50 (NCI-H522) was 2.92 µM (inactive) and the GI50 (OVCAR-8) was 4.03 µM (inactive). For the same compound, the GI50 (HOP-92) was 20 µM (inactive), the GI50 (UACC-62) was 4.85 µM (inactive) and the GI50 (HCT-116) was 4.43 µM (inactive). The GI50 (HOP-62) was 5.32 µM (inactive), the GI50 (IGROV-1) was 7.59 µM (inactive) and the GI50 (SF-268) was 9.59 µM (inactive).

Source: ChEMBL document CHEMBL1201862, “PubChem BioAssay data set” (2004)
